Measured values: patent US20250136581A1, “SUBSTITUTED TRIAZOLE DERIVATIVE, PREPARATION METHOD THEREFOR, PHARMACEUTICAL COMPOSITION THEREOF, AND USE THEREOF” (SHANGHAI SIMR BIOTECHNOLOGY CO., LTD., priority 2021, published 2025)
pKi: −log10 of the molar value.

Columns and labels:
[1] = target: α5-GABAA receptor (α5, β3, γ2 subunits) (Homo sapiens (Human), UniProt P18507+P31644); experiment: Whole cell patch clamp, inverse agonist efficacy in HEK293 cells expressing α5-GABAA receptor; format: cell-based; settings: HEK293, drug 100 nM, GABA 0.05 μM, −60 mV; read-out: Compound inverse agonist efficacy %
In short: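 Stable HEK293 line co-expressing human α5, β3, γ2 subunits; whole-cell patch clamp at −60 mV, inward current evoked by 0.05 μM GABA, then compound at 100 nM in GABA solution applied. Effect derived from leak, pre- and post-drug GABA currents.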

[2] = target: human α1β3γ2 receptors (Homo sapiens (Human), UniProt P14867+P18507); experiment: 3H-flunitrazepam competition binding, human α1β3γ2 GABAA receptor; settings: HEK293 cell membranes, 1 nM 3H-flunitrazepam; read-out: Ki α1
In short: (§1)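 HEK293 membranes stably expressing each human receptor subtype ([…]) competed against 1 nM 3H-flunitrazepam in Tris buffer, 1 h at room temperature; flumazenil defined the low-signal control. Eight-point 4-fold test-compound dilutions; GF/C filtration and scintillation counting gave IC50 by curve fitting, converted to Ki.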

[3] = target: human α2β3γ2 receptors (Homo sapiens (Human), UniProt P18507+P47869); experiment: 3H-flunitrazepam competition binding, human α2β3γ2 GABAA receptor; settings: HEK293 cell membranes, 1 nM 3H-flunitrazepam; read-out: Ki α2
In short: as §1

inhibition at 0.1 µM [1]: 42.5% | pKi [2]: 7.22 | pKi [3]: 7.80
SMILES: Cc1nnn(-c2ccc(C(F)F)cc2)c1COc1ccc(N2CC(=O)NC(C)C2)nn1 (stereo not drawn) [Example 6, 4-(6-((1-(4-(Difluoromethyl)phenyl)-4-methyl-1H-1,2,3-triazol-5-yl)methoxy)pyridazin-3-yl)-6-methylpiperazin-2-one]
